From PubChem BioAssay AID1259407 (Chemical Carcinogenesis Research Information System (CCRIS), 2018) come the findings set out here.

Active and inactive are the calls of the source. The rule behind the calls is not given here.

The subject of this series is CCRIS mutagenicity, Ames/micronucleus/aberration tests. The series can be described thus: CCRIS mutagenicity studies. The text has this: The CCRIS database contains chemical records with carcinogenicity, mutagenicity, tumor promotion, and tumor inhibition test results. It was developed by the National Cancer Institute (NCI). Data are derived from studies cited in primary journals, current awareness tools, NCI reports, and other sources. Test results have been reviewed by experts in carcinogenesis and mutagenesis.
CCRIS provides historical information from the years 1985 - 2011. It is no longer updated.
This is an archive assay for CCRIS mutagenicity studies.

[1] abbreviates: Test System: AMES SALMONELLA TYPHIMURIUM, Strain/Indicator: TA100, Metabolic Activation: NONE, Method: PREINCUBATION

Regarding `CCCl`, the mutagenic call (Test System: AMES SALMONELLA TYPHIMURIUM, Strain/Indicator: TA98, Metabolic Activation: NONE, Method: DESICCATOR) was “inactive; negative”; the mutagenic call (Test System: AMES SALMONELLA TYPHIMURIUM, Strain/Indicator: TA98, Metabolic Activation: NONE, Method: GAS EXPOSURE) is “inactive; negative”; the mutagenic call (Test System: AMES SALMONELLA TYPHIMURIUM, Strain/Indicator: TA98, Metabolic Activation: RAT LIVER S-9, PHENOBARBITAL AND BETA-NAPHTHOFLAVONE, Method: GAS EXPOSURE) is “inactive; negative”; the mutagenic call (Test System: AMES SALMONELLA TYPHIMURIUM, Strain/Indicator: TA98, Metabolic Activation: RAT, LIVER, S-9, AROCLOR 1254 (30%), Method: DESICCATOR) is “inactive; negative”; the mutagenic call (Test System: AMES SALMONELLA TYPHIMURIUM, Strain/Indicator: TA98, Metabolic Activation: RAT, LIVER, S-9, PHENOBARBITAL AND 5,6-BENZOFLAVONE, Method: GAS EXPOSURE) was “inactive; negative”; the mutagenic call (Test System: AMES SALMONELLA TYPHIMURIUM, Strain/Indicator: TA100, Metabolic Activation: HAMSTER, LIVER, S-9, AROCLOR 1254 (30%), Method: DESICCATOR) is “inactive; negative”. Moreover, the mutagenic call reads like this: (Test System: AMES SALMONELLA TYPHIMURIUM, Strain/Indicator: TA100, Metabolic Activation: NONE, Method: DESICCATOR) “inactive; negative”; (Test System: AMES SALMONELLA TYPHIMURIUM, Strain/Indicator: TA100, Metabolic Activation: NONE, Method: GAS EXPOSURE) “active; positive”; (Test System: AMES SALMONELLA TYPHIMURIUM, Strain/Indicator: TA100, Metabolic Activation: RAT LIVER S-9, PHENOBARBITAL AND BETA-NAPHTHOFLAVONE, Method: GAS EXPOSURE) “active; positive”; (Test System: AMES SALMONELLA TYPHIMURIUM, Strain/Indicator: TA100, Metabolic Activation: RAT, LIVER, S-9, PCB, Method: GAS EXPOSURE) “inactive; negative”; (Test System: AMES SALMONELLA TYPHIMURIUM, Strain/Indicator: TA100, Metabolic Activation: RAT, LIVER, S-9, PHENOBARBITAL AND 5,6-BENZOFLAVONE, Method: GAS EXPOSURE) “active; positive”; (Test System: AMES SALMONELLA TYPHIMURIUM, Strain/Indicator: TA1535, Metabolic Activation: HAMSTER, LIVER, S-9, AROCLOR 1254 (30%), Method: DESICCATOR) “active; positive”. For the same molecule, the mutagenic call is, setting by setting: (Test System: AMES SALMONELLA TYPHIMURIUM, Strain/Indicator: TA1535, Metabolic Activation: NONE, Method: DESICCATOR) “active; positive”; (Test System: AMES SALMONELLA TYPHIMURIUM, Strain/Indicator: TA1535, Metabolic Activation: NONE, Method: GAS EXPOSURE) “active; positive”; (Test System: AMES SALMONELLA TYPHIMURIUM, Strain/Indicator: TA1535, Metabolic Activation: RAT LIVER S-9, PHENOBARBITAL AND BETA-NAPHTHOFLAVONE, Method: GAS EXPOSURE) “active; positive”; (Test System: AMES SALMONELLA TYPHIMURIUM, Strain/Indicator: TA1535, Metabolic Activation: RAT, LIVER, S-9, AROCLOR 1254 (30%), Method: DESICCATOR) “active; positive”; (Test System: AMES SALMONELLA TYPHIMURIUM, Strain/Indicator: TA1535, Metabolic Activation: RAT, LIVER, S-9, PHENOBARBITAL AND 5,6-BENZOFLAVONE, Method: GAS EXPOSURE) “active; positive”; (Test System: AMES SALMONELLA TYPHIMURIUM, Strain/Indicator: TA1537, Metabolic Activation: NONE, Method: GAS EXPOSURE) “inactive; negative”. The mutagenic call was “inactive; negative” (Test System: AMES SALMONELLA TYPHIMURIUM, Strain/Indicator: TA1537, Metabolic Activation: RAT LIVER S-9, PHENOBARBITAL AND BETA-NAPHTHOFLAVONE, Method: GAS EXPOSURE); “inactive; negative” (Test System: AMES SALMONELLA TYPHIMURIUM, Strain/Indicator: TA1537, Metabolic Activation: RAT, LIVER, S-9, PHENOBARBITAL AND 5,6-BENZOFLAVONE, Method: GAS EXPOSURE); “active; positive” (Test System: CHINESE HAMSTER OVARY, Strain/Indicator: CHO-K1 (HPRT)/6-THIOGUANINE, Metabolic Activation: NONE); “active; positive” (Test System: CHINESE HAMSTER OVARY, Strain/Indicator: CHO-K1 (HPRT)/6-THIOGUANINE, Metabolic Activation: RAT, LIVER, S-9, AROCLOR 1254); “inactive; negative” (Test System: E. COLI, Strain/Indicator: WP2 UVRA (PKM101), Metabolic Activation: RAT, LIVER, S-9, PCB, Method: GAS EXPOSURE); “active; positive” (Test System: E. COLI, Strain/Indicator: WP2 UVRA, Metabolic Activation: NONE, Method: GAS EXPOSURE). In addition, the mutagenic call reads like this: (Test System: E. COLI, Strain/Indicator: WP2 UVRA, Metabolic Activation: RAT, LIVER, S-9, PCB, Method: GAS EXPOSURE) “inactive; negative”; (Test System: E. COLI, Strain/Indicator: WP2 UVRA, Metabolic Activation: RAT, LIVER, S-9, PHENOBARBITAL AND 5,6-BENZOFLAVONE, Method: GAS EXPOSURE) “active; positive”; (Test System: E.COLI, Strain/Indicator: WP2UVRA, Metabolic Activation: NONE, Method: GAS EXPOSURE) “active; positive”; (Test System: E.COLI, Strain/Indicator: WP2UVRA, Metabolic Activation: RAT LIVER S-9, PHENOBARBITAL AND BETA-NAPHTHOFLAVONE, Method: GAS EXPOSURE) “active; positive”; (Test System: UDS MOUSE HEPATOCYTES, Strain/Indicator: THY INCORP, Metabolic Activation: NONE, Method: IN VIVO-IN VITRO) “inactive; negative”.

With `C[C@H]1C[C@@]23CCC4C[C@](C)(C(=O)O)CC[C@@]4(C)[C@@H]2CC[C@]1(O)C3` (some centres not stated), for the setting “Test System: AMES SALMONELLA TYPHIMURIUM, Strain/Indicator: TM677, Metabolic Activation: RAT, LIVER, S-9, AROCLOR 1254, Method: PREINCUBATION”, the mutagenic call is “inactive; negative”.

`Cc1ccc2cc3c4c(ccc3c3c2c1CC3)C(O)C(O)C=C4` (configuration not stated): the mutagenic call (Test System: CHINESE HAMSTER V-79, Strain/Indicator: V-79/8-AZAGUANINE, Metabolic Activation: NONE, Method: STANDARD PLATE) was “active; positive”.

As for `OCc1ccc(-c2nccc3c2[nH]c2ccccc23)o1`, the mutagenic call under setting [1] is “active; positive”.

As for `CC(Br)C(N)=O` (configuration not stated), the mutagenic call is “active; positive” (Test System: AMES SALMONELLA TYPHIMURIUM, Strain/Indicator: TA100, Metabolic Activation: MOUSE, LIVER, S-9, AROCLOR 1254, Method: STANDARD PLATE) and “active; positive” (Test System: AMES SALMONELLA TYPHIMURIUM, Strain/Indicator: TA100, Metabolic Activation: NONE, Method: STANDARD PLATE).

Consider `O=C(O)C1CCCCC1`, for which the mutagenic call (Test System: UDS RAT GASTRIC MUCOSAL CELLS, Strain/Indicator: THY INCORP, Metabolic Activation: NONE, Method: LIQUID SCINTILLATION COUNTING) is “inactive; negative”.

As to `C1CN(SSN2CCOCC2)CCO1`, the mutagenic call is “inactive; negative” (Test System: AMES SALMONELLA TYPHIMURIUM, Strain/Indicator: TA98, Metabolic Activation: NONE, Method: PREINCUBATION); “inactive; negative” (Test System: AMES SALMONELLA TYPHIMURIUM, Strain/Indicator: TA98, Metabolic Activation: RAT LIVER S-9, PHENOBARBITAL AND BETA-NAPHTHOFLAVONE, Method: PREINCUBATION); “inactive; negative” under setting [1]; “inactive; negative” (Test System: AMES SALMONELLA TYPHIMURIUM, Strain/Indicator: TA100, Metabolic Activation: RAT LIVER S-9, PHENOBARBITAL AND BETA-NAPHTHOFLAVONE, Method: PREINCUBATION); “inactive; negative” (Test System: AMES SALMONELLA TYPHIMURIUM, Strain/Indicator: TA1535, Metabolic Activation: NONE, Method: PREINCUBATION); “inactive; negative” (Test System: AMES SALMONELLA TYPHIMURIUM, Strain/Indicator: TA1535, Metabolic Activation: RAT LIVER S-9, PHENOBARBITAL AND BETA-NAPHTHOFLAVONE, Method: PREINCUBATION). Moreover, the mutagenic call is, setting by setting: (Test System: AMES SALMONELLA TYPHIMURIUM, Strain/Indicator: TA1537, Metabolic Activation: NONE, Method: PREINCUBATION) “inactive; negative”; (Test System: AMES SALMONELLA TYPHIMURIUM, Strain/Indicator: TA1537, Metabolic Activation: RAT LIVER S-9, PHENOBARBITAL AND BETA-NAPHTHOFLAVONE, Method: PREINCUBATION) “inactive; negative”; (Test System: AMES SALMONELLA TYPHIMURIUM, Strain/Indicator: TA1538, Metabolic Activation: NONE, Method: PREINCUBATION) “inactive; negative”; (Test System: AMES SALMONELLA TYPHIMURIUM, Strain/Indicator: TA1538, Metabolic Activation: RAT LIVER S-9, PHENOBARBITAL AND BETA-NAPHTHOFLAVONE, Method: PREINCUBATION) “inactive; negative”; (Test System: E.COLI, Strain/Indicator: WP2UVRA, Metabolic Activation: NONE, Method: PREINCUBATION) “inactive; negative”; (Test System: E.COLI, Strain/Indicator: WP2UVRA, Metabolic Activation: RAT LIVER S-9, PHENOBARBITAL AND BETA-NAPHTHOFLAVONE, Method: PREINCUBATION) “inactive; negative”.
